# Test system: mESC Bmi1-luciferase reporter, firefly/renilla ratio, 24 h
# Experiment: compounds raising Bmi1 reporter signal – mouse embryonic stem cells, luciferase, cherry-pick, esBAF inhibitor project, dose response (AID 651717);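 further: luciferase knocked into Bmi1 locus with EF-1a renilla as cell number control; rising ratio signals esBAF inhibition which derepresses Bmi1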
row,SMILES,AC40 [µM]
1,COc1cccc(-c2noc(C3CCCN(C(=O)CC(C)(C)C)C3)n2)c1 (centres undefined),6.48
2,Cc1ccc(C)c(N2CCN(C(=O)CCc3nc(-c4cccc(C(F)(F)F)c4)no3)CC2)c1,7.5
3,COc1cc(C)ccc1OCc1cc(C(=O)N2CCN(C3CCCCC3)CC2)no1,5.3
4,COc1cc(C2Nc3cc(Cl)c(S(N)(=O)=O)cc3S(=O)(=O)N2)ccc1OCc1ccccc1 (centres undefined),3.48
5,O=C(CC1CC2CCC1C2)NC1CCCCCCC1 (centres undefined),9.68
6,CSc1ccccc1NC(=O)c1ccc(N2CCCC2=O)cc1,2.01
7,COc1cc(/C=C2/C(=N)N3N=C(CC(=O)N4CCOCC4)SC3=NC2=O)ccc1OCc1ccc(F)cc1,3.4
8,CC(=O)N(C)c1nc(-c2ccc(Cl)cc2)cs1,5.63
9,CS(=O)(=O)N1CCc2cc(C(=O)Nc3ccc(Cl)cc3)ccc21,6.5
10,CC(=O)c1cccc(OCc2cc(C(=O)NCCC3=CCCCC3)no2)c1,1.23
11,ON=C(CCc1ccccc1)c1ccccc1,0.977
12,O=C(c1ccccc1)c1ccc2ccccc2c1,3.04
13,c1ccc(-c2ccc3[nH]ccc3c2)cc1,3.07
14,Nc1c(Cl)cc(N=Nc2ccccc2)cc1Cl,3.27
15,CC(=O)Oc1ccc(-c2csc(Nc3ccc(Cl)cn3)n2)cc1,2.19
16,Oc1ccccc1/C=N/N1CCN(c2ccccn2)CC1,2.75
17,CC(=O)c1ccc(OCc2cc(C(=O)N(C)Cc3ccccn3)no2)cc1,6.33
18,CN(C)S(=O)(=O)c1cccc(C(=O)Nc2ccc(Cl)cn2)c1,5.04
19,COC(=O)c1c(-c2ccc(Br)cc2)noc1N,14.7
20,OCc1c(OCc2cccc(F)c2)ccc2ccccc12,7.24
21,COc1ccc(CNc2nc3ccccc3s2)cc1OC,3.7
22,COc1cc(Cl)c(C)cc1NC(=O)c1cccc(OC)c1OC,6.31
23,CCOC(=O)C1=C(CSc2nc(-c3ccccc3)ccc2C#N)OC(N)=C(C#N)C1c1ccccc1 (centres undefined),12.4
24,NC(=O)c1ccccc1-c1nc(-c2ccccc2)no1,4.23

# Source: PubChem BioAssay AID651717 (Broad Institute, 2012)
